Source: the supplement of paper PMC10307832

Columns and labels:
Assay in all cases: relative viability (nuclei count vs DMSO), 5 days (fraction); higher = more cells survive
[1] = compound: COc1cc(Nc2ncc3c(n2)-c2ccc(Cl)cc2C(c2c(F)cccc2OC)=NC3)ccc1C(=O)O [Alisertib] + O=C(CCCCCCC(=O)Nc1ccccc1)NO [Vorinostat] (partner 1 µM)
Procedure, shortened: (§1)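 Dosing by pin tool came one day after lung cancer cell lines were seeded in 1536-well plates, using either one drug or a fixed anchor-drug dose plus five library-drug doses (not always all listed) in √10 steps. After 5 days, nuclei were counted on 4× images. Relative viability is treated-well nuclei count divided by vehicle-well nuclei count, and values are medians of duplicate plates.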

[2] = compound: COc1cc(Nc2ncc3c(n2)-c2ccc(Cl)cc2C(c2c(F)cccc2OC)=NC3)ccc1C(=O)O [Alisertib] + Nc1nc2[nH]cc(CCc3ccc(C(=O)N[C@@H](CCC(=O)O)C(=O)O)cc3)c2c(=O)[nH]1 [Pemetrexed] (partner 0.2 µM)
Procedure, shortened: as §1

[3] = compound: COc1cc(Nc2ncc3c(n2)-c2ccc(Cl)cc2C(c2c(F)cccc2OC)=NC3)ccc1C(=O)O [Alisertib] + Cc1nc(Nc2ncc(C(=O)Nc3c(C)cccc3Cl)s2)cc(N2CCN(CCO)CC2)n1 [Dasatinib] (partner 0.075 µM)
Procedure, shortened: as §1

[4] = compound: COc1cc(Nc2ncc3c(n2)-c2ccc(Cl)cc2C(c2c(F)cccc2OC)=NC3)ccc1C(=O)O [Alisertib] + CC(=O)c1c(C)c2cnc(Nc3ccc(N4CCNCC4)cn3)nc2n(C2CCCC2)c1=O [Palbociclib] (partner 0.5 µM)
Procedure, shortened: as §1

Cell Line	relative viability ([1]; first compound 0.005 µM)	relative viability ([1]; first compound 0.01581 µM)	relative viability ([1]; first compound 0.05 µM)	relative viability ([1]; first compound 0.1581 µM)	relative viability ([1]; first compound 0.5 µM)	relative viability ([2]; first compound 0.005 µM)	relative viability ([2]; first compound 0.01581 µM)	relative viability ([2]; first compound 0.05 µM)	relative viability ([2]; first compound 0.1581 µM)	relative viability ([2]; first compound 0.5 µM)	relative viability ([3]; first compound 0.005 µM)	relative viability ([3]; first compound 0.01581 µM)	relative viability ([3]; first compound 0.05 µM)	relative viability ([3]; first compound 0.1581 µM)	relative viability ([3]; first compound 0.5 µM)	relative viability ([4]; first compound 0.005 µM)	relative viability ([4]; first compound 0.01581 µM)	relative viability ([4]; first compound 0.05 µM)	relative viability ([4]; first compound 0.1581 µM)	relative viability ([4]; first compound 0.5 µM)
NCI-H2087	0.758	0.667	0.173	0.106	0.133	0.641	0.632	0.423	0.163	0.144	0.776	0.628	0.137	0.113	0.123	0.226	0.271	0.154	0.11	0.109
NCI-H2126	0.682	0.802	0.366	0.207	0.198	0.639	0.641	0.602	0.316	0.276	0.55	0.553	0.48	0.231	0.215	0.314	0.378	0.346	0.304	0.269
NCI-H2170	0.766	0.782	0.318	0.2	0.164	0.267	0.282	0.236	0.209	0.183	0.443	0.561	0.403	0.225	0.167	0.366	0.365	0.243	0.22	0.155
NCI-H2228	0.544	0.671	0.373	0.0949	0.104	0.344	0.336	0.26	0.121	0.0987	0.414	0.416	0.248	0.0768	0.1	0.641	0.689	0.378	0.118	0.125
NCI-H2342	0.65	0.662	0.61	0.464	0.397	0.774	0.75	0.57	0.542	0.418	0.291	0.348	0.266	0.268	0.276	0.539	0.533	0.509	0.348	0.415
NCI-H2347	0.522	0.569	0.518	0.407	0.343	0.424	0.423	0.416	0.409	0.349	0.263	0.339	0.275	0.268	0.222	0.427	0.429	0.438	0.387	0.362
NCI-H2405	0.913	0.898	0.799	0.288	0.213	1.01	1.03	0.871	0.308	0.295	0.196	0.202	0.189	0.152	0.132	0.497	0.504	0.495	0.317	0.257
NCI-H3122	0.891	0.79	0.799	0.282	0.186	0.184	0.189	0.194	0.186	0.143	0.581	0.664	0.498	0.103	0.134	0.174	0.174	0.215	0.139	0.149
